Assay results reported in patent US6987100B2, “Pharmaceutical compositions for treating bone lesions in multiple myeloma” (Astellas Pharm Inc., priority 1998, dated 2006).
Read-outs that look alike come from different tables or passages of the source.

Assays:
[1] = tested on: mice transplanted with myeloma cells ARH-77; assay: Bone resorption inhibition test in multiple myeloma model animals (urinary deoxypyridinoline); type: in vivo, C.B-17/lcr-scid Jcl mice; settings: 0.1 mg/kg intravenous once; urine on day 4 after administration; mice with paralysis in hind limbs; vs solvent group
Procedure: On the next day, 10^6 cells/mouse of myeloma cells ARH-77 were transplanted into the left cardiac ventricle of each animal under anesthesia with pentobarbital. […] On the day 4 after the administration, a physiological saline load (30 ml/kg po) was burdened to these mice and the urine was collected after 6 hours. Since the mice suffering from paralysis in hind limbs could hardly urinate, such an animal was subjected to abdominal section and the urine was directly collected from the bladder. Normal animals (sham-operated group), into the left cardiac ventricle of which PBS (0.1 ml/animal) was injected as a substitute for the myeloma cells, were treated in the same manner. The urinary deoxypyridinoline (Dpyr) level was measured by using a [sequence]-D kit (Amersham) and corrected with the urinary creatinine level.

[2] = tested on: human myeloma cells ARH-77; assay: Myeloma cell proliferation inhibitory test; type: cell-based
Procedure: A 5×10^4 cells/ml cell dilution of human myeloma cells […], which had been incubated in a culture flask, was prepared by using an RPMI1640 medium (containing 10% of EBS), pipetted in 1 ml portions into a 24-well plate and then incubated in a CO2 incubator at 37° C. After 6 hours, 100 μl portions of the aqueous solution of the compound A were added to give final concentrations of 0.3 to 1000 μM (three-fold serial, duplicate samples). After incubating in the CO2 incubator at 37° C. for 4 days, the viable cells were counted with the use of a Cell Counting Kit (Dojin Kagaku). By referring the value of the control prepared by adding PBS as to the cell proliferation inhibitory ratio of […], the inhibitory ratios were calculated.

[3] = tested on: mice transplanted with myeloma cells ARH-77; assay: Lumbar bone mineral density decrease test in multiple myeloma model animals; type: in vivo
Procedure: Similar to Example 1, mice suffering from paralysis in hind limbs were selected 3 weeks after the transplantation of myeloma cells. Then an aqueous solution of the compound A monohydrate (3 mg/kg) (compound A group) and the solvent alone (solvent group) were orally administered once a day for 6 days repeatedly. On the next day of the completion of the administration, a 10% formalin solution was refluxed from the left cardiac ventricle under anesthesia with pentobarbital and the lumber vertebrae was taken out. The bone mineral density in the bone tissue was measured by the DXA method. As Example 1, the normal mice (sham-operated group) were also subjected to the measurement of the bone mineral density.
Two weeks after the transplantation of the myeloma cells, the compound A was orally administered for 14 days in doses of 0.03, 0.3 and 3 mg/kg. Then the bone mineral density was measured as in the above (1) but selecting animals suffering from paralysis in hind limbs during the administration period.

[4] = tested on: patient with multiple myeloma; assay: Clinical test 1 (multiple myeloma and bone lesions, one patient); type: in vivo, human; settings: for M protein (IgD): blood
[5] = tested on: patients with multiple myeloma; settings: for systemic bone salt mass, change ratio to the data before the administration: 5 patients
murine model of myeloma = settings: cited from earlier work
patients = settings: intravenous 90 mg/4 weeks, cited from earlier work
[6] = tested on: patients with multiple myeloma; settings: 30 mg/day oral; cited from earlier work
[7] = 3 mg oral once a day, after 8 weeks
[8] = 6 mg oral once a day, after 24 weeks

O=P(O)(O)C(O)(Cc1cnc2ccccn12)P(=O)(O)O [compound A, 1-hydroxy-2-(imidazo[1,2-a]pyridin-3-yl)ethane-1,1-bisphosphonic acid]
inhibition of the increase in urinary Dpyr level (bone resorption marker) [1]: significantly inhibited
cell proliferation inhibitory ratio ([2]; 100 μM, 4 days incubation, ARH-77): 84.2%
inhibition of ARH-77 cell proliferation ([2]; 0.3 to 1000 μM, 4 days): dose-dependent manner
bone mineral density of lumbar vertebrae ([3]; 3 mg/kg oral once a day for 6 days, DXA method, mice with paralysis in hind limbs): 24.7 ± 0.9 mg/cm^2.
lumbar bone mineral density compared with solvent group ([3]; oral administration (6 days 3 mg/kg; 14 days 0.03, 0.3, 3 mg/kg)): higher bone mineral density than the solvent group
Dpyr level relative to level before the administration [4, 7]: about 60%
M protein (IgD) ([4]; 3 mg oral once a day, after 2 weeks): 11.6 mg/dL
M protein (IgD) ([4]; 3 mg oral once a day, after 4 weeks): 9.8 mg/dL
M protein (IgD) [4, 7]: 7.7 mg/dL
M protein (IgD) ([4]; 3 mg oral once a day, after 20 weeks): 5.9 mg/dL
M protein (IgD) ([4]; before administration): 25.8 mg/dL
side effects related to the compound ([5]; 6 mg oral once a day for 24 weeks, 6 patients): No side effect
systemic bone salt mass, change ratio to the data before the administration ([5]; 6 mg oral once a day, after 12 weeks): 0.61%
narcotic score (analgesic type × administration frequency) [5, 8]: 0.60±1.342
systemic bone salt mass, change ratio to the data before the administration [5, 8]: 1.18%
EORTC questionnaire on QOL ([5]; 6 mg oral once a day, before vs after 24 weeks): improvement was observed in pain, fatigue, shortness of breath, inappetence, constipation, economic conditions
bone lesions in bone radiographs ([5]; 6 mg oral once a day, one of the patients): obvious amelioration in bone lesions
narcotic score (analgesic type × administration frequency) ([5]; before the administration): 1.67±3.615

NCCC(O)(P(=O)(O)O)P(=O)(O)O [pamidronate]
inhibition of the increase in urinary Dpyr level (bone resorption marker) [1]: no significant inhibition
cytotoxic effect within the bone marrow (murine model of myeloma): evidence of a cytotoxic effect within the bone marrow
effect on tumor growth / tumor burden (murine model of myeloma): no effect on tumor growth was demonstrated
Dpyr level relative to level before the administration (patients; after 4 weeks): exceeded 80%
Dpyr level relative to level before the administration (patients; week 2): about 60%

O=P(O)(O)C(O)(Cc1cccnc1)P(=O)(O)O [risedronate]
inhibition of the increase in urinary Dpyr level (bone resorption marker) [1]: no significant inhibition
bone destruction (murine model of myeloma): clear reduction in bone destruction
effect on tumor growth / tumor burden (murine model of myeloma): no effect on tumor burden
bone mineral density [6]: elevated bone mineral density
bone resorption [6]: suppressed bone resorption
